Biological target: T1, human orexin type 2 receptor (Homo sapiens, UniProt O43614)
T1 construct: expressed in transfected cells
T1 sequence (O43614 1-444): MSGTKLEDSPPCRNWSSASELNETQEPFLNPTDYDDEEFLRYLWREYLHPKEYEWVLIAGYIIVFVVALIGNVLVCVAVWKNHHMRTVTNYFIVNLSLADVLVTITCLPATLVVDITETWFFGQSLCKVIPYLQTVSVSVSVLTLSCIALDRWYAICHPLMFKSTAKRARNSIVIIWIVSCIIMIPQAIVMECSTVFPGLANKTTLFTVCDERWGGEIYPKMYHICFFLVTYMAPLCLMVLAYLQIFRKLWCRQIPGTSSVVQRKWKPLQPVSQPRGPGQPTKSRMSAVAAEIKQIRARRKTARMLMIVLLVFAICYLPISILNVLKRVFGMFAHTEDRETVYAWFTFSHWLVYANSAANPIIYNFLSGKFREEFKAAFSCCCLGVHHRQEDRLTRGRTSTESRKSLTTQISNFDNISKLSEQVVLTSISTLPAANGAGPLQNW
Assay: Measurement of orexin type 2 receptor agonist activity (calcium fluorescence, Fluo-4 AM, FDSS)
Type: cell-based
Settings: compound at 3 μM; CHO cells forcibly expressing human OX2 receptor; DMSO = 0%, orexin A (human) 10 nM = 100%
Source text: Experimental Example 1: Obtainment of Cell Stably Expressing Human Orexin Type 2 Receptor (hOX2R)
To obtain a cell clone stably expressing human orexin type 2 receptor, human orexin type 2 receptor cDNA was inserted into pcDNA3.1(+) plasmid vector (Invitrogen), and a plasmid DNA for expression of human orexin type 2 receptor (pcDNA3.1(+)/hOX2R) was cloned. The plasmid DNA was introduced into CHO-dhfr cell by an electroporation method, and human orexin type 2 receptor expressing clone cells were obtained by limiting dilution method by using G418 drug resistance as a selection marker.
Experimental Example 2: Measurement of Orexin Type 2 Receptor Agonist Activity
CHO cells forcibly expressing human OX2 receptor were seeded in each well of 384 well black transparent bottom plate (BD Falcon) at 7,500 cells/well, and cultured for one day in a 5% CO2 incubator at 37° C. After removal of the medium in the cell plate, assay buffer A containing a calcium indicator (HBSS (Thermo Fisher Scientific), 20 mM HEPES (Thermo Fisher Scientific), 0.1% BSA (Wako Pure Chemical Industries, Ltd. or Sigma-Aldrich), 2.5 μg/mL Fluo-4 AM (DOJINDO Chemical), 0.08% Pluronic F127 (DOJINDO Chemical), 1.25 mM probenecid (DOJINDO Chemical)) was added at 30 μL/well. The plate was stood for 30 min in a 5% CO2 incubator at 37° C., and further stood at room temperature for 30 min. A test compound prepared by diluting with assay buffer B (HBSS, 20 mM HEPES, 0.1% BSA) was added at 10 μL/well, and the fluorescence value was measured by FDSSμCELL (Hamamatsu Photonics K.K.) every one sec for 1 min, and thereafter every two sec for 1 min 40 sec. The activity (%) of the test compound was calculated assuming that variation in the fluorescence value when DMSO was added instead of the test compound was 0%, and variation in the fluorescence value when orexin A (human) (PEPTIDE INSTITUTE, INC.) was added at the final concentration of 10 nM was 100%. The activity of each compound at the concentration of 3 μM was shown below.

Compound	OX2R agonist activity (3 μM, %)
O=C(N[C@H]1CCN(C(=O)C2(F)CCC2)[C@H]1Cc1cccc(-c2cccc(F)c2)c1)[C@@H]1CCCO1 [Example 43, (2S)-N-[(2S,3S)-2-[(3′-fluoro[1,1′-biphenyl]-3-yl)methyl]-1-(1-fluorocyclobutane-1-carbonyl)pyrrolidin-3-yl]oxolane-2-carboxamide]	62%
O=C(C1CCC1)N1CC[C@H](NC(=O)C2(F)CCC2)[C@@H]1Cc1cccc(-c2cccc(F)c2)c1 (relative stereo) [Example 10, N-{cis-1-(cyclobutanecarbonyl)-2-[(3′-fluoro[1,1′-biphenyl]-3-yl)methyl]pyrrolidin-3-yl}-1-fluorocyclobutane-1-carboxamide]	79%
O=C(NC1CCN(C(=O)C2CCC2)C1Cc1cccc(-c2cccc(F)c2)c1)[C@@H]1CCCO1 (stereo in doubt) [Example 16, (2S)-N-{cis-1-(cyclobutanecarbonyl)-2-[(3′-fluoro[1,1′-biphenyl]-3-yl)methyl]pyrrolidin-3-yl}oxolane-2-carboxamide]	90%
COC1(C(=O)N[C@H]2CCN(C(=O)C3CCC3)[C@H]2Cc2cccc(-c3cccc(F)c3)c2)CC1 (relative stereo) [Example 11, N-{cis-1-(cyclobutanecarbonyl)-2-[(3′-fluoro[1,1′-biphenyl]-3-yl)methyl]pyrrolidin-3-yl}-1-methoxycyclopropane-1-carboxamide]	93%
CC(C)(CO)C(=O)N1CC[C@H](NC(=O)[C@@H]2CCCO2)[C@@H]1Cc1cccc(-c2cccc(F)c2)c1 [Example 46, (2S)-N-[(2S,3S)-2-[(3′-fluoro[1,1′-biphenyl]-3-yl)methyl]-1-(3-hydroxy-2,2-dimethylpropanoyl)pyrrolidin-3-yl]oxolane-2-carboxamide]	67%
COC(=O)N[C@H]1CCN(C(=O)C2CCC2)[C@H]1Cc1cccc(-c2cccc(F)c2)c1 (relative stereo) [Example 1, methyl{cis-1-(cyclobutanecarbonyl)-2-[(3′-fluoro[1,1′-biphenyl]-3-yl)methyl]pyrrolidin-3-yl}carbamate]	33%
CN(C)C(=O)C(=O)N[C@H]1CCN(C(=O)C2(F)CCC2)[C@H]1Cc1cccc(-c2cccc(F)c2)c1 [Example 35, N^~2^~-[(2S,3S)-2-[(3′-fluoro[1,1′-biphenyl]-3-yl)methyl]-1-(1-fluorocyclobutane-1-carbonyl)pyrrolidin-3-yl]-N^~1^~,N^~1^~- dimethylethanediamide]	75%
CN(C)C(=O)C(=O)NC1CCCN(C(=O)C2CCC2)C1Cc1cccc(-c2cccc(F)c2)c1 (stereo not drawn) [Example 29, N^~2^~-{cis-1-(cyclobutanecarbonyl)-2-[(3′-fluoro[1,1′-biphenyl]-3-yl)methyl]piperidin-3-yl}-N^~1^~,N^~1^~- dimethylethanediamide]	80%
O=C(N[C@H]1CCN(C(=O)C2(O)CCC2)[C@H]1Cc1cccc(-c2cccc(F)c2)c1)[C@@H]1CCCO1 [Example 45]	86%
O=C(N[C@H]1CCN(C(=O)C2CCC2)[C@H]1Cc1csc(-c2cccc(F)c2)n1)[C@@H]1CCCO1 [Example 24, (2S)-N-[(2S,3S)-1-(cyclobutanecarbonyl)-2-{[2-(3-fluorophenyl)-1,3-thiazol-4-yl]methyl}pyrrolidin-3-yl]oxolane-2-carboxamide]	65%
CN(C)C(=O)C(=O)NC1CCN(C(=O)C2CCC2)C1Cc1cccc(-c2cccc(F)c2)c1 (stereo not drawn) [Example 4, N^~2^~-{cis-1-(cyclobutanecarbonyl)-2-[(3′-fluoro[1,1′-biphenyl]-3-yl)methyl]pyrrolidin-3-yl}-N^~1^~,N^~1^~- dimethylethanediamide]	95%
CN(C)C(=O)C(=O)N[C@H]1CCN(C(=O)C2(C#N)CCC2)[C@H]1Cc1cccc(-c2cccc(F)c2)c1 [Example 36, N^~2^~-((2S,3S)-1-(1-cyanocyclobutane-1-carbonyl)-2-[(3′-flluoro[1,1′-biphenyl]-3-yl)methyl]pyrrolidin-3-yl]-N^~1^~,N^~1^~- dimethylethanediamide]	86%
O=C(N[C@H]1CCN(C(=O)N2CCC2)[C@H]1Cc1cccc(-c2cccc(F)c2)c1)[C@@H]1CCCO1 [Example 31, (2S)-N-{(2S,3S)-1-(azetidine-1-carbonyl)-2-[(3′-fluoro[1,1′-biphenyl]-3-yl)methyl]pyrrolidin-3-yl}oxolane-2-carboxamide]	104%
O=C(N[C@H]1CCN(C(=O)N2CCC2)[C@H]1Cc1cccc(-c2cccc(F)c2)n1)[C@@H]1CCCO1 [Example 21, (2S)-N-[(2S,3S)-1-(azetidine-1-carbonyl)-2-{[6-(3-fluorophenyl)pyridin-2-yl]methyl]pyrrolidin-3-yl]oxolane-2-carboxamide]	59%
O=C(N[C@H]1CCN(C(=O)C2CCC2)[C@H]1Cc1cccc(-c2cccc(F)c2)c1)[C@@H]1CCCO1 [Example 33, (2S)-N-{(2S,3S)-1-(cyclobutanecarbonyl)-2-[(3′-fluoro[1,1′-biphenyl]-3-yl)methyl]pyrrolidin-3-yl}oxolane-2-carboxamide]	97%
O=C(N[C@H]1CCN(C(=O)N2CCC2)[C@H]1Cc1csc(-c2cccc(F)c2)n1)[C@@H]1CCCO1 [Example 23, (2S)-N-[(2S,3S)-1-(azetidine-1-carbonyl)-2-{[2-(3-fluorophenyl)-1,3-thiazol-4-yl]methyl}pyrrolidin-3-yl]oxolane-2-carboxamide]	76%
COC1(C(=O)N[C@H]2CCN(C(=O)C3CCC3)[C@H]2Cc2csc(-c3cccc(F)c3)n2)CC1 [Example 27, N-[(2S,3S)-1-(cyclobutanecarbonyl)-2-{[2-(3-fluorophenyl)-1,3-thiazol-4-yl]methyl}pyrrolidin-3-yl]-1-methoxycyclopropane-1-carboxamide]	60%
CN(C)C(=O)C(=O)N[C@H]1CCN(C(=O)C2(O)CCC2)[C@H]1Cc1cccc(-c2cccc(F)c2)c1 [Example 37, N^~2^~-[(2S,3S)-2-[(3′-fluoro[1,1′-biphenyl]-3-yl)methyl]-1-(1-hydroxycyclobutane-1-carbonyl)pyrrolidin-3-yl]-N^~1^~,N^~1^~- dimethylethanediamide]	101%
CN(C)C(=O)C(=O)N[C@H]1CCN(C(=O)C(C)(C)CO)[C@H]1Cc1cccc(-c2cccc(F)c2)c1 [Example 40, N^~2^~-[(2S,3S)-2-[(3′-fluoro[1,1′-biphenyl]-3-yl)methyl]-1-(3-hydroxy-2,2-dimethylpropanoyl)pyrrolidin-3-yl]-N^~1^~,N^~1^~-dimethylethanediamide]	79%
CN(C)C(=O)C(=O)N[C@H]1CCN(C(=O)C2CCC2)[C@H]1Cc1cccc(-c2cccc(F)c2)c1 [Example 32, N^~2^~-{(2S,3S)-1-(cyclobutanecarbonyl)-2-[(3′-fluoro[1,1′-biphenyl]-3-yl)methyl]pyrrolidin-3-yl}-N^~1^~,N^~1^~- dimethylethanediamide]	103%
COC1(C(=O)N[C@H]2CCN(C(=O)N3CCC3)[C@H]2Cc2cccc(-c3cccc(F)c3)n2)CC1 [Example 25, N-[(2S,3S)-1-(azetidine-1-carbonyl)-2-([6-(3-fluorophenyl)pyridin-2-yl]methyl]pyrrolidin-3-yl]-1-methoxycyclopropane-1-carboxamide]	54%
CN(C)C(=O)C(=O)N[C@H]1CCN(C(=O)C2CCC2)[C@H]1Cc1csc(-c2cccc(F)c2)n1 [Example 20, N^~2^~-[(2S,3S)-1-(cyclobutanecarbonyl)-2-{[2-(3-fluorophenyl)-1,3-thiazol-4-yl]methyl}pyrrolidin-3-yl]-N^~1,N^~1^~- dimethylethanediamide]	82%
